# Experimental data from publication PMC11173529, “Structure–Activity Relationship Studies in a Series of Xanthine Inhibitors of SLACK Potassium Channels” (Molecules, 2024).
# pIC50: −log10 of the molar value. Read-outs that look alike come from different tables or passages of the source.
# Columns and labels:
# [1] = test system: WT SLACK; design: method as in PMID 32408169; settings: whole-cell patch-clamp electrophysiology; read-out: IC50 versus WT SLACK; cited from earlier work
# [2] = test system: hERG (KV11.1) channels; design: method as in PMID 32408169; settings: at 10 µM; cited from earlier work
# [3] = test system: GABAA Cl– channels; design: method as in PMID 33859800; settings: binding displacement assay; cited from earlier work
# [4] = test system: SLACK; design: method as in PMID 33859800; settings: whole-cell patch-clamp electrophysiology; read-out: IC50 versus WT SLACK; cited from earlier work
# [5] = test system: Kcnt1^L/L mice; design: method as in PMID 36173683; settings: mouse model using Kcnt1 L/L mice; cited from earlier work
# [6] = test system: WT SLACK; design: method as in earlier work; settings: APC assay; read-out: IC50 versus WT SLACK; cited from earlier work
# [7] = test system: WT SLACK; design: method as in PMID 37812884; settings: whole-cell APC, CHO cells stably expressing WT SLACK; read-out: IC50 versus WT SLACK; cited from earlier work
# [8] = design: method as in PMID 37812884; settings: cited from earlier work
# [9] = test system: A934T SLACK; design: method as in PMID 37812884; settings: Tl+-flux assay; read-out: IC50 versus A934T SLACK; cited from earlier work
# [10] = target: T1, WT hSLACK (Homo sapiens, UniProt Q5JUK3); assay: Whole-cell automated patch-clamp (APC) in CHO cells stably expressing WT hSLACK; format: cell-based; settings: for SLACK Imax: maximum inhibition at 30 µM test compound standardized to VU0606170 (set at 100%), WT hSLACK; for pIC50: whole-cell APC, CHO cells stably expressing WT hSLACK, averages n ≥ 3, read-out: SLACK IC50
# T1 construct: host or cells: CHO-K1
# T1 sequence (Q5JUK3 1-1235 isoform Q5JUK3-3): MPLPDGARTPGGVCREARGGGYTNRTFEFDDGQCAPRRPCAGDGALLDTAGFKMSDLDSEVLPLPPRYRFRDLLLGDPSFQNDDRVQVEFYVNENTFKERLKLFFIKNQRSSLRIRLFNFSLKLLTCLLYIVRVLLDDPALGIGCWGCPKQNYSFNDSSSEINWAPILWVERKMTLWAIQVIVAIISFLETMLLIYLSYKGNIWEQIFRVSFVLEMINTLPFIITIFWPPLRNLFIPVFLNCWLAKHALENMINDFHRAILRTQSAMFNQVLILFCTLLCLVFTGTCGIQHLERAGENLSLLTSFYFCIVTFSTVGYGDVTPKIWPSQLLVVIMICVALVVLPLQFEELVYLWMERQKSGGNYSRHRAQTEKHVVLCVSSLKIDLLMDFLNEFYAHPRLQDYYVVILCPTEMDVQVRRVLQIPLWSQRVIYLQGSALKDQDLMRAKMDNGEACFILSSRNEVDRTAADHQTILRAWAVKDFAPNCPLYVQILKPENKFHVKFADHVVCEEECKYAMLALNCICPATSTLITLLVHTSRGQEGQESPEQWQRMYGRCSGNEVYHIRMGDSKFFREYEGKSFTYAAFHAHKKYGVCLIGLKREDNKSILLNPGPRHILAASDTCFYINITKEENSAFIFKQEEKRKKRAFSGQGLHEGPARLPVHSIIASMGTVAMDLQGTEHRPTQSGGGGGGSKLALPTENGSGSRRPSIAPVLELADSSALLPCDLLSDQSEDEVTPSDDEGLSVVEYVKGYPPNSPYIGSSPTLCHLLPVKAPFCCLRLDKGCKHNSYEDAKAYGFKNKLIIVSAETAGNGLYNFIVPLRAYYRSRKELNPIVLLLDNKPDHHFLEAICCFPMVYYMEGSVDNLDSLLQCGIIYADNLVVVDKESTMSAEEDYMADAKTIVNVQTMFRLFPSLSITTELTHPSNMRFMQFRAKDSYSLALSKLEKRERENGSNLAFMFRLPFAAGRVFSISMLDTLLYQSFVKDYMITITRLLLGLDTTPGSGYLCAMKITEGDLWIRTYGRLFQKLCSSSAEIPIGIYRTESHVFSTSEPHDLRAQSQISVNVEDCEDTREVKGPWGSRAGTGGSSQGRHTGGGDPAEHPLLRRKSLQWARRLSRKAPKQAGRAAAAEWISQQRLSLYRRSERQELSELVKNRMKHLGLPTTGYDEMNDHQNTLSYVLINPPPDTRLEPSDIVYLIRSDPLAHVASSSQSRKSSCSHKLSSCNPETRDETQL
# Method: All new analogs were tested in our APC assay using CHO cells stably expressing WT SLACK using a concentration-response format with concentrations ranging from 0.125 to 30 μM in half-log steps and a minimum of three cells (replicates) per concentration series. […] Still, there were some notable results. For example, substitution at the 4-position was largely unfavorable regardless of the nature of the substituent (21, 24, 27, 30, and 33) apart from the 4-fluoro analog 18. […] As the trifluoromethyl group is similar in electronegativity to chlorine, but larger than both methyl and chlorine, perhaps the steric bulk of the trifluoromethyl is to blame for the poor potency of these analogs. With the exception of the fluoro (16–18) and cyano (28–30) analogs, substitution at the 3-position was favorable for SLACK activity, with 3-methoxy analog 32 standing out in this set.
# Stably transfected monoclonal HEK293 cell lines expressing Slick, Maxi-K α1/β3, Maxi-K α1/β4, CaV3.2, GIRK 1/2, KV2.1, KV7.2, NaV1.7, and TASK-1 were generated as previously described. Stably transfected monoclonal HEK293 cell lines expressing hERG were generated as previously described. CHO-K1 cells expressing human Slack and disease-associated human Slack mutations, G288S and A934T, were generated by transfecting a PiggyBac TRE mammalian expression vector (VectorBuilder, Chicago, IL, USA) containing KCNT1. FuGENE 6 (Promega, Madison, WI, USA) transfection reagent and protocol, together with Opti-MEM (Thermo Fisher Scientific, Walkham, MA, USA), were utilized.
# Automated patch-clamp recording was performed with a SyncroPatch 768 PE system (Nanion, Munich, Germany) as previously described. Whole-cell recordings were performed at room temperature. Cells were harvested by first washing with PBS without Mg^2+ or Ca^2+ (Gibco, Billings, MT, USA) to remove cell culture media, followed by dissociation with TryPLE (Gibco, Billings, MT, USA). Cells were then resuspended and diluted to 100,000 cells/mL in external solution. External solution contained 105 mM NaCl, 4 mM KCl, 1 mM MgCl2, 5 mM CaCl2, 10 mM HEPES, and 40 mM N-Methyl-D-glucamine chloride, titrated to pH of 7.4 and osmolarity of 300 mOsm/kg; internal solution contained 70 mM NaCl, 70 mM KF, 10 mM KCl, 5 mM EGTA, and 5 mM HEPES, titrated to a pH of 7.2 and osmolarity of 295 mOsm/kg.
# The APC protocol was set as follows: Cells were held at a […] of −80 mV for 100 ms, then a ramp protocol was performed from −100 mV to 80 mV at 0.4 mV/ms, followed by holding the cell at −80 mV for another 100 ms, then steps were performed at −20 mV, 0 mV, +20 mV, +40 mV, and +60 mV for 100 ms of each step. Whole-cell currents were measured at 0 mV and normalized to current after external buffer addition. […] To obtain the concentration-response relationship graphs and IC50 values, we take the median value of the last 7 current amplitude values obtained for each set of data points collected for a given concentration at a particular step.
# [11] = test system: hERG channel; design: method as in PMID 33143429; settings: Tl+-flux assay; cited from earlier work
# [12] = test system: co-cultures of cortical neuronal and glial cells; design: method as in PMID 33143429; settings: cited from earlier work
# [13] = test system: WT SLACK; design: method as in PMID 33143429; settings: whole-cell APC, HEK-293 cells; read-out: IC50 versus WT SLACK; cited from earlier work
Compound,SLACK Imax [10],pIC50 [10],also measured
O=C(Nc1cccc(C(F)(F)F)c1)c1ccc(CSc2nnnn2-c2ccccc2)cc1 [Compound 3],–,–,pIC50 [1]: 5.80; hERG (KV11.1) inhibition [2]: 45%
Cc1cccc(CC(=O)Nc2cnn(-c3cccc(C(=O)NCc4ccccc4-n4cncn4)c3)c2)c1 [Compound 1],–,–,pIC50 [1]: 5.49; hERG (KV11.1) inhibition [2]: almost completely inhibited
C[C@H](NC(=O)c1cc(C(F)(F)F)nn1C)c1nc(-c2ccnc(C(F)(F)F)c2)no1 [Compound 4],–,–,displacement at GABAA Cl– channels [3]: 74%; pIC50 [4]: 7.40; anticonvulsant effects [5]: demonstrated anticonvulsant effects
O=C(Nc1cccc(C(F)(F)F)c1)c1ccc2nc(N3C(=O)c4ccccc4C3=O)sc2c1 [Compound 2],–,–,pIC50 [1]: 5.52; hERG (KV11.1) inhibition [2]: 10–20%
O=C(N[C@@H]1CCc2cc(Cl)ccc21)c1ccc(S(=O)(=O)N2CCCC2)s1 [Compound 5],–,–,pIC50 [6]: > 6.00
Cc1ccc2cccc(S(=O)(=O)N3CC(c4nc(-c5ccc(F)cc5)no4)C3)c2n1 [Compound 7],–,–,pIC50 [7]: 6.49; metabolism in mouse liver microsomes [8]: rapidly metabolized; pIC50 [9]: 6.17
CN(Cc1ccccc1)c1nc2c(c(=O)n(Cc3ccc(C(F)(F)F)cc3)c(=O)n2C)n1C [Analog 27],79%,5.01,–
COc1ccc(Cl)cc1NC(=O)CN1CCN(S(=O)(=O)N2CCC(C)CC2)CC1 [Compound 6],–,–,pIC50 [11]: < 5.00; frequency of spontaneous calcium oscillations [12]: inhibited the frequency of spontaneous calcium oscillations; pIC50 [13]: 5.77
CCCN(Cc1ccccc1)c1nc2c(c(=O)n(Cc3ccccc3)c(=O)n2C)n1C [Analog 68],100%,5.89,–
CN(Cc1ccccc1)c1nc2c(c(=O)n(Cc3ccccc3)c(=O)n2C)n1CC1CC1 [Analog 43],55%,< 5.00,–

# Continued, in another order:
SLACK Imax [10],pIC50 [10],Compound,also measured
20%,< 5.00,CN(Cc1cccnc1)c1nc2c(c(=O)n(Cc3ccccc3)c(=O)n2C)n1C [Analog 63],–
100%,5.70,Cc1cccc(CN(C)c2nc3c(c(=O)n(Cc4ccccc4)c(=O)n3C)n2C)c1 [Analog 54],–
70%,< 5.00,CN(Cc1ccccc1)c1nc2c(c(=O)n(Cc3ccccc3C(F)(F)F)c(=O)n2C)n1C [Analog 25],–
100%,5.82,Cc1cccc(Cn2c(=O)c3c(nc(N(C)Cc4ccccc4)n3C)n(C)c2=O)c1 [Analog 23],–
89%,5.70,CN(Cc1ccccc1)c1nc2c(c(=O)n(Cc3ccccc3Cl)c(=O)n2C)n1C [Analog 19],–
